{"source": "patent US5788978A", "about": "“Injectable pulsatile ivermectin composition” (priority 1996, dated 1998)", "origin": "cited, not measured here", "key": {"parasites": {"test_system": "parasites", "settings": "in vivo"}}}
{"substance": "ivermectin", "values": [{"measurement": "minimum efficiency level in serum", "setting": "parasites", "result": "2 to 5 nanogrammes per milliliter of serum"}, {"measurement": "solubility in acqueous media", "result": "insoluble"}]}
